Literature values in patent publication US20130102943A1, “RELOADABLE FINISHES FOR TEXTILES AND FORMULATIONS FOR LOADING SUCH FINISHES” (SCHOELLER TEXTIL AG, priority 2009, published 2013).

Test system: gram-negative and gram-positive bacteria, as well as yeasts and molds

CCCCCCCCCCCC(=O)N[C@@H](CCCNC(=N)N)C(=O)OCC.Cl [Lauroyl arginate, Ethyl-N-alpha-lauroyl-L-arginate HCl]
antimicrobial effectiveness: effective
